From publication PMC13366330 (Acta Pharmaceutica Sinica. B, 2025)

How the values were obtained:
[1] = Body and organ weights, organ H&E in the antitumor experiment; type: in vivo, C57 mice; settings: 100 mg/kg, intraperitoneal
TAMs in tumor tissue = assay: M2 polarization of TAMs in tumor tissue, flow cytometry; type: in vivo, C57 mice; settings: 10 mg/kg, intraperitoneal

spleen weight [1] | Compound | liver H&E finding [1] | percentage of M2 polarization in TAMs (TAMs in tumor tissue) [%]
significant decrease | CN(C)/N=N/c1[nH]cnc1C(N)=O [dacarbazine] | coagulative necrosis | 
 | C[C@H](NC(=O)c1c(N)nn2cccnc12)c1cc2cccc(C#Cc3cnn(C)c3)c2c(=O)n1-c1ccccc1 [IPI-549] |  | 15.40
